Several values for one entry are separate records, joined by “and”; a condition that tells them apart may be missing. Equal entries are not always repeated. Structures can show the parent of a compound that is named as a salt. Where two headings read alike, the source gives them in different places.
Tests used:
[1] = tested on: p53 signaling (p53RE-bla HCT-116 cells); assay: cells; assay type: cell-based
[2] = tested on: p53RE-bla HCT-116 cells
[3] = tested on: p53 signaling (p53RE-bla HCT-116 cells)
[4] = tested on: p53 signaling (p53RE-bla HCT-116 cells); remark: listed apart in the source
[5] = read-out: EC50, p53 activation, primary screening
[6] = Homo sapiens, HCT-116, read-out: p53 activation EC50, cherry pick confirmation
[7] = Homo sapiens, HCT-116, read-out: p53 activation EC50, primary screening
[8] = Homo sapiens, HCT-116, read-out: p53 activation efficacy, cherry pick confirmation
[9] = Homo sapiens, HCT-116, read-out: p53 activation efficacy, primary screening
[10] = Homo sapiens, HCT-116, read-out: EC50, p53 activation, primary screening
[11] = Homo sapiens, HCT-116, read-out: Efficacy, p53 activation, primary screening
[12] = read-out: p53 activation EC50, cherry pick confirmation
[13] = read-out: p53 activation EC50, primary screening

Row | SMILES | EC50, viability, cherry pick confirmation [2] | EC50, viability, primary screening [2] | Efficacy, viability, primary screening [2] | EC50, p53 activation, cherry pick confirmation [3] | EC50, p53 activation, primary screening [3] | Efficacy, p53 activation, cherry pick confirmation [3] | Efficacy, p53 activation, primary screening [3] | EC50, p53 activation, cherry pick confirmation [4] | Viability EC50, cherry pick confirmation [2] | Viability EC50, primary screening [2] | Viability efficacy, cherry pick confirmation [2] | Viability efficacy, primary screening [2] | p53 activation EC50, cherry pick confirmation [3] | p53 activation EC50, primary screening [3] | p53 activation efficacy, cherry pick confirmation [3] | p53 activation efficacy, primary screening [3] | p53 activation EC50, cherry pick confirmation [4] | p53 activation EC50, primary screening [4] | p53 activation efficacy, cherry pick confirmation [4] | p53 activation efficacy, primary screening [4] | also measured
1 | Cl.O.c1cnc2c(c1)ccc1cccnc12 | inactive | inactive | inactive | inactive | inactive | inactive | inactive | inactive |  |  |  |  |  |  |  |  |  |  |  |  | Efficacy, p53 activation, cherry pick confirmation [1]: 70.9047; Efficacy, p53 activation, primary screening [1]: 35.453; EC50 ([1]; read-out: EC50, p53 activation, cherry pick confirmation): 50.2 µM; EC50 [1, 5]: 25.8 µM; EC50 ([2]; read-out: EC50, viability, cherry pick confirmation): 22.1 µM; EC50, p53 activation, primary screening [4]: inactive; Efficacy, p53 activation, cherry pick confirmation [4]: inactive; Efficacy, p53 activation, primary screening [4]: inactive
2 | CCN(CC)CCCC(C)Nc1c2ccc(Cl)cc2nc2ccc(OC)cc12 (stereo not drawn) [Quinacrine dihydrochloride dihydrate] |  |  |  |  |  |  |  |  | inactive | inactive | inactive | inactive | inactive | inactive | inactive | inactive | inactive | inactive | inactive | inactive | EC50 [1, 6]: 8.34 µM; EC50 [1, 7]: 20.7 µM; Emax [1, 8]: 271%; Emax [1, 9]: 79.8%
3 | COc1cccc2c1C(=O)c1c(O)c3c(c(O)c1C2=O)C[C@@](O)(C(=O)CO)C[C@@H]3O[C@H]1C[C@H](N)[C@H](O)[C@H](C)O1 [Adriamycin hydrochloride] | inactive | inactive | inactive | inactive | inactive | inactive | inactive | inactive |  |  |  |  |  |  |  |  |  |  |  |  | EC50 ([1]; Homo sapiens, HCT-116, read-out: EC50, p53 activation, cherry pick confirmation): 1.45 µM; EC50 [1, 10]: 0.963 µM; Emax ([1]; Homo sapiens, HCT-116, read-out: Efficacy, p53 activation, cherry pick confirmation): 335%; Emax [1, 11]: 220%; Efficacy, viability, cherry pick confirmation [2]: inactive; EC50, p53 activation, primary screening [4]: inactive; Efficacy, p53 activation, cherry pick confirmation [4]: inactive; Efficacy, p53 activation, primary screening [4]: inactive
4 | c1cc(N(CC2CO2)CC2CO2)ccc1OCC1CO1 (stereo not drawn) [4-(Diglycidylamino)phenyl glycidyl ether] |  |  |  |  |  |  |  |  | inactive | inactive | inactive | inactive | inactive | inactive | inactive | inactive | inactive | inactive | inactive | inactive | p53 activation efficacy, cherry pick confirmation [1]: 85.4543; p53 activation efficacy, primary screening [1]: 57.856; EC50 [1, 12]: 23.5 µM; EC50 [1, 13]: 27.3 µM
5 | CC(=O)Nc1ccn(C2COC(COC(=O)c3ccccc3)O2)c(=O)n1 (stereo not drawn) |  |  |  |  |  |  |  |  | inactive | inactive | inactive | inactive | inactive | inactive | inactive | inactive | inactive | inactive | inactive | inactive | p53 activation efficacy, cherry pick confirmation [1]: 43.9867; p53 activation efficacy, primary screening [1]: 52.8473; EC50 [1, 12]: 9.43 µM; EC50 [1, 13]: 2.5 µM
6 | CC(O)C(=O)O.CCOc1ccc2nc3cc(N)ccc3c(N)c2c1.O [Ethacridine lactate hydrate] |  |  |  |  |  |  |  |  | inactive | inactive | inactive | inactive | inactive | inactive | inactive | inactive | inactive | inactive | inactive | inactive | p53 activation efficacy, cherry pick confirmation [1]: 145.785; p53 activation efficacy, primary screening [1]: 113.254; EC50 [1, 12]: 19.1 µM; EC50 [1, 13]: 21.5 µM
7 | CC(C)(C)C(=O)OCOP(=O)(COCCn1cnc2c(N)ncnc21)OCOC(=O)C(C)(C)C [Adefovir dipivoxil] |  |  |  |  |  |  |  |  | inactive | inactive | inactive | inactive | inactive | inactive | inactive | inactive | inactive | inactive | inactive | inactive | EC50 [1, 6]: 1.47 µM; EC50 [1, 7]: 5.18 µM; Emax [1, 8]: 60.8%; Emax [1, 9]: 106%
8 | O=C(c1ccc(O)cc1)c1ccc(O)cc1O [2,4,4'-Trihydroxybenzophenone] | inactive | inactive | inactive | inactive | inactive | inactive | inactive | inactive |  |  |  |  |  |  |  |  |  |  |  |  | EC50, p53 activation, cherry pick confirmation [1]: inactive; Efficacy, p53 activation, cherry pick confirmation [1]: inactive; Efficacy, p53 activation, primary screening [1]: 51.9983; EC50 [1, 5]: 46.5 µM; Efficacy, viability, cherry pick confirmation [2]: inactive; EC50, p53 activation, primary screening [4]: inactive; Efficacy, p53 activation, cherry pick confirmation [4]: inactive; Efficacy, p53 activation, primary screening [4]: inactive
9 | COC(=O)Nc1nc2ccc(Sc3ccccc3)cc2[nH]1 [Fenbendazole] | inactive | inactive | inactive | inactive | inactive | inactive | inactive | inactive |  |  |  |  |  |  |  |  |  |  |  |  | EC50, p53 activation, cherry pick confirmation [1]: inactive; Efficacy, p53 activation, cherry pick confirmation [1]: inactive; EC50 [1, 10]: 0.35 µM; Emax [1, 11]: 71%; Efficacy, viability, cherry pick confirmation [2]: inactive; EC50, p53 activation, primary screening [4]: inactive; Efficacy, p53 activation, cherry pick confirmation [4]: inactive; Efficacy, p53 activation, primary screening [4]: inactive
10 | Oc1ccc(OCc2ccccc2)cc1 [4-(Benzyloxyl)phenol] |  |  |  |  |  |  |  |  | inactive | inactive | inactive | inactive | inactive | inactive | inactive | inactive | inactive | inactive | inactive | inactive | EC50 [1, 6]: 14 µM; EC50 [1, 7]: 18.6 µM; Emax [1, 8]: 39%; Emax [1, 9]: 33.5%
11 | O=C1c2ccccc2C(=O)C1(O)O [Ninhydrin] |  |  |  |  |  |  |  |  | inactive | inactive | inactive | inactive | inactive | inactive | inactive | inactive | inactive | inactive | inactive | inactive | EC50 [1, 6]: 22.3 µM; EC50 [1, 7]: 41.2 µM; Emax [1, 8]: 44.3%; Emax [1, 9]: 55.1%
12 | COC(=O)/C=C(\C)OP(=O)(OC)OC [Mevinphos] |  |  |  |  |  |  |  |  |  |  |  |  |  |  |  |  |  |  |  |  | p53 activation EC50 [1]: inactive; p53 activation efficacy [1]: inactive; Viability EC50 [2]: inactive; Viability efficacy [2]: inactive; p53 activation EC50 [3]: inactive; EC50 [4]: 7.96 µM; p53 activation efficacy [4]: 77.3871 and 64.7167

Source: PMC9151520 (Archives of Toxicology, 2022)
